Experiment [1] relates to JAK2, TYK2/p-STAT4 (Tyr693) activated by IL-12 in NK-92 cell line. In words: IL-12-JAK2, TYK2/p-STAT4 (Tyr693) inhibition IC50 cellular assay. Conditions: for Selectivity fold (TYK2/JAK2): Cellular assay, pSTAT5/GM-CSF IC50 vs pSTAT4/IL-12 IC50; for IC50: NK92, Cellular assay, read-out: pSTAT4/IL-12 IC50. It counts as cell-based. The gist of the method: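 NK-92 cells were starved overnight without IL-2 and preincubated 1 h at 37° C with compound (8 doses, 10000–0.61 nM, 4-fold, 0.2% DMSO). They were then stimulated with IL-12 (40 ng/ml final) for 30 min. Lysate p-STAT4 (Tyr693) was read by AlphaLISA SureFire; IC50 from four-parameter logistic fit.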

The test system of a further experiment is pSTAT5/GM-CSF. Put plainly: pSTAT5/GM-CSF cellular assay (JAK2 selectivity). The settings on record: for Selectivity fold (TYK2/JAK2): pSTAT5/GM-CSF IC50 over pSTAT4/IL-12 IC50. It counts as cell-based.
The target of experiment [2] is T1, TYK2-JH2 (aa 575-869, in-house) protein (Homo sapiens, UniProt P29597).
T1 construct: TYK2-JH2 (aa 575-869, in-house) protein; made in house
T1 sequence (P29597 575-869): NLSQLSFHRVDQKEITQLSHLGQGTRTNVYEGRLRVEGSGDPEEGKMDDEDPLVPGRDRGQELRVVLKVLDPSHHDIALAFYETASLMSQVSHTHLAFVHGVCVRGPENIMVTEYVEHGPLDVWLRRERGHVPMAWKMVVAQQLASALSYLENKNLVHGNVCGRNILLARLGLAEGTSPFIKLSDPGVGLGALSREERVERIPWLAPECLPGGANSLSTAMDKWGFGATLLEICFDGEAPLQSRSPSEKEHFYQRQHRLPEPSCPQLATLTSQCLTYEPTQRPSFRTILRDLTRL
Put plainly: TYK2-JH2 biochemical assay (HTRF probe displacement). It counts as binding. The settings on record: Biochemical assay; read-out: TYK2-JH2 IC50. The gist of the method:
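Recombinant TYK2-JH2 (0.2 nM) was pre-incubated 0.5 h at room temperature with compounds (10 doses, 5-fold dilution; 500× DMSO stocks from 500 uM) in 20 mM HEPES pH 7.5, 10 mM MgCl2, 0.005% BSA, 2 mM DTT, 0.015% Brij-35. Probe displacement was read by HTRF (ex337, em620/665 nm); IC50 from four-parameter logistic fit.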
(TR-FRET usually uses a lanthanide donor and a delayed reading to cut background.)

SMILES strings stand for the structures.

For the compound `CC(=O)Nc1cc(Nc2cc(OCCO)cc(S(C)(=O)=O)n2)c(-c2ccc(C(F)(F)F)cn2)cn1` [Example F12, N-(4′-((4-(2-hydroxyethoxy)-6-(methylsulfonyl)pyridin-2-yl)amino)-5-(trifluoromethyl)-[2,3′-bipyridin]-6′-yl)acetamide], in experiment [1], the “Selectivity fold (TYK2/JAK2)” value was more than 7407 fold. Further, the IC50 in experiment [1] is 1.35 nM; in the experiment on pSTAT5/GM-CSF, more than 10 µM; in experiment [2] it was 0.034 nM.
Turning to `COC1CCN(c2cc(Nc3cc(NC(C)=O)ncc3-c3ccc4c(n3)OCC(C)(C)O4)nc(S(C)(=O)=O)c2)CC1` [Example Q52, N-(5-(2,2-dimethyl-2,3-dihydro-[1,4]dioxino[2,3-b]pyridin-6-yl)-4-((4-(4-methoxypiperidin-1-yl)-6-(methylsulfonyl)pyridin-2-yl)amino)pyridin-2-yl)acetamide], the values for the IC50 (in experiment [1]; with pSTAT5/GM-CSF; in experiment [2]) were 1.33 nM, 3.42 µM and 0.038 nM, respectively. The “Selectivity fold (TYK2/JAK2)” value in the experiment on pSTAT5/GM-CSF is 2571 fold.
On to `COCCOc1cc(Nc2cc(NC(C)=O)ncc2-c2cc(C)n(C)n2)nc(S(C)(=O)=O)c1` [Example N5, N-(5-(1,5-dimethyl-1H-pyrazol-3-yl)-4-((4-(2-methoxyethoxy)-6-(methylsulfonyl)pyridin-2-yl)amino)pyridin-2-yl)acetamide], for which the IC50 is 0.212 nM in experiment [1], more than 10 µM in the experiment with pSTAT5/GM-CSF and 0.039 nM in experiment [2]. Moreover, the “Selectivity fold (TYK2/JAK2)” value in the experiment on pSTAT5/GM-CSF is more than 47169 fold.
The matching figures for `CCn1ccc(-c2cnc(NC(C)=O)cc2Nc2cc(OCCOC)cc(S(C)(=O)=O)n2)n1` [Example M20, N-(5-(1-ethyl-1H-pyrazol-3-yl)-4-((4-(2-methoxyethoxy)-6-(methylsulfonyl)pyridin-2-yl)amino)pyridin-2-yl)acetamide]: 1.01 nM, more than 10 µM, 0.062 nM and more than 9900 fold.
The matching figures for `CC(=O)Nc1cc(Nc2cc(OCC3(C)COC3)cc(S(C)(=O)=O)n2)c(-c2ccc3c(n2)OCC(C)(C)O3)cn1` [Example Q98, N-(5-(2,2-dimethyl-2,3-dihydro-[1,4]dioxino[2,3-b]pyridin-6-yl)-4-((4-((3-methyloxetan-3-yl)methoxy)-6-(methylsulfonyl)pyridin-2-yl)amino)pyridin-2-yl)acetamide]: 1.15 nM, more than 10 µM, 0.026 nM and more than 8695 fold.
The corresponding values for `CC(=O)Nc1cc(Nc2cc(F)cc(S(C)(=O)=O)c2)c(-c2ccn(C)n2)cn1` [Example J30, N-(4-((3-fluoro-5-(methylsulfonyl)phenyl)amino)-5-(1-methyl-1H-pyrazol-3-yl)pyridin-2-yl)acetamide] are 4.82 nM, more than 10 µM, 0.054 nM and more than 2074 fold.
With `CC(=O)Nc1cc(Nc2cc(OC(C)C)cc(S(C)(=O)=O)n2)c(-n2cccn2)cn1` [Example A12, N-(4-((4-isopropoxy-6-(methylsulfonyl)pyridin-2-yl)amino)-5-(1H-pyrazol-1-yl)pyridin-2-yl)acetamide], in experiment [1], the “Selectivity fold (TYK2/JAK2)” value is reported as more than 595 fold. Also, the IC50 in experiment [1] was 16.8 nM; in the experiment on pSTAT5/GM-CSF, more than 10 µM; in experiment [2], 0.037 nM.
With `COCCOc1ccc(-c2cnc(NC(C)=O)cc2Nc2cc(OCC3CC3)cc(S(C)(=O)=O)c2)nc1` [Example D10, N-(4′-((3-(cyclopropylmethoxy)-5-(methylsulfonyl)phenyl)amino)-5-(2-methoxyethoxy)-[2,3′-bipyridin]-6′-yl)acetamide], the “Selectivity fold (TYK2/JAK2)” value in experiment [1] was more than 789 fold. In addition, the IC50 in experiment [1] was 12.7 nM; with pSTAT5/GM-CSF, more than 10 µM; in experiment [2] it was 0.052 nM.
For the compound `CC(=O)Nc1cc(Nc2cc(OC(C)C)cc(S(C)(=O)=O)n2)c(-c2cc3n(n2)CCOC3)cn1` [Example Q6, N-(5-(6,7-dihydro-4H-pyrazolo[5,1-c][1,4]oxazin-2-yl)-4-((4-isopropoxy-6-(methylsulfonyl)pyridin-2-yl)amino)pyridin-2-yl)acetamide], the IC50 is 0.45 nM in experiment [1], more than 10 µM in the experiment on pSTAT5/GM-CSF and 0.028 nM in experiment [2]. Moreover, in the experiment with pSTAT5/GM-CSF, the “Selectivity fold (TYK2/JAK2)” value is on record as more than 22222 fold.
`COCCOc1ccc(-c2cnc(NC(C)=O)cc2Nc2cccc(S(C)(=O)=O)c2)nc1` [Example D2, N-(5-(2-methoxyethoxy)-4′-((3-(methylsulfonyl)phenyl)amino)-[2,3′-bipyridin]-6′-yl)acetamide]: in experiment [1], the “Selectivity fold (TYK2/JAK2)” value was more than 641 fold. The IC50 was 15.6 nM in experiment [1], more than 10 µM in the experiment with pSTAT5/GM-CSF and 0.038 nM in experiment [2].
`CC(=O)Nc1cc(Nc2cc(OC(F)F)cc(S(C)(=O)=O)n2)c(-c2ccn(C)n2)cn1` [Example J58, N-(4-((4-(difluoromethoxy)-6-(methylsulfonyl)pyridin-2-yl)amino)-5-(1-methyl-1H-pyrazol-3-yl)pyridin-2-yl)acetamide]: the IC50 was 0.497 nM in experiment [1], more than 10 µM in the experiment with pSTAT5/GM-CSF and 0.025 nM in experiment [2]. Also, the “Selectivity fold (TYK2/JAK2)” value with pSTAT5/GM-CSF was more than 20120 fold.
The matching figures for `CC(=O)Nc1cc(Nc2cc(OC(C)C)cc(S(C)(=O)=O)n2)c(-c2ccn([C@H]3CCOC3)n2)cn1` [Example M33, (S)-N-(4-((4-isopropoxy-6-(methylsulfonyl)pyridin-2-yl)amino)-5-(1-(tetrahydrofuran-3-yl)-1H-pyrazol-3-yl)pyridin-2-yl)acetamide]: 0.648 nM, more than 10 µM, 0.027 nM and more than 15432 fold.
The matching figures for `COCc1cc(Nc2cc(NC(C)=O)ncc2-c2ccn(C)n2)nc(S(C)(=O)=O)c1` [Example J19, N-(4-((4-(methoxymethyl)-6-(methylsulfonyl)pyridin-2-yl)amino)-5-(1-methyl-1H-pyrazol-3-yl)pyridin-2-yl)acetamide]: 0.882 nM, more than 10 µM, 0.015 nM and more than 1137 fold.
Turning to `COCc1ccc(-c2cnc(NC(C)=O)cc2Nc2cc(COC)cc(S(C)(=O)=O)n2)nc1` [Example E9, N-(5-(methoxymethyl)-4′-((4-(methoxymethyl)-6-(methylsulfonyl)pyridin-2-yl)amino)-[2,3′-bipyridin]-6′-yl)acetamide], the “Selectivity fold (TYK2/JAK2)” value in experiment [1] is listed as more than 19960 fold. In addition, the IC50 in experiment [1] is 0.504 nM; with pSTAT5/GM-CSF it was more than 10 µM; in experiment [2], 0.022 nM.
`CCn1ccc(-c2cnc(NC(C)=O)cc2Nc2cc(COC)cc(S(C)(=O)=O)n2)n1` [Example M7, N-(5-(1-ethyl-1H-pyrazol-3-yl)-4-((4-(methoxymethyl)-6-(methylsulfonyl)pyridin-2-yl)amino)pyridin-2-yl)acetamide]: the IC50 was 0.537 nM in experiment [1], more than 10 µM in the experiment on pSTAT5/GM-CSF and 0.026 nM in experiment [2]. Moreover, the “Selectivity fold (TYK2/JAK2)” value with pSTAT5/GM-CSF is reported as more than 18621 fold.
The matching figures for `CC(=O)Nc1cc(Nc2cc(Oc3ccccc3)cc(S(C)(=O)=O)n2)c(-c2ccn(C)n2)cn1` [Example J39, N-(5-(1-methyl-1H-pyrazol-3-yl)-4-((6-(methylsulfonyl)-4-phenoxypyridin-2-yl)amino)pyridin-2-yl)acetamide]: 10.7 nM, more than 10 µM, 0.036 nM and more than 935 fold.
As to `COC(C)c1cc(Nc2cc(NC(C)=O)ncc2-c2ccc(N3C[C@@H](C)O[C@@H](C)C3)cn2)nc(S(C)(=O)=O)c1` (stereo partly drawn) [Example C18, N-(5-(cis-2,6-dimethylmorpholino)-4′-((4-(1-methoxyethyl)-6-(methylsulfonyl)pyridin-2-yl)amino)-[2,3′-bipyridin]-6′-yl)acetamide], the “Selectivity fold (TYK2/JAK2)” value in experiment [1] is 7625 fold. Besides, the figures for the IC50 (in experiment [1]; in the experiment on pSTAT5/GM-CSF; in experiment [2]) were 0.639 nM, 4.87 µM and 0.023 nM, respectively.
On to `COc1ccc(S(C)(=O)=O)nc1Nc1cc(NC(C)=O)ncc1-c1ccn(C)n1` [Example J23, N-(4-((3-methoxy-6-(methylsulfonyl)pyridin-2-yl)amino)-5-(1-methyl-1H-pyrazol-3-yl)pyridin-2-yl)acetamide], for which the IC50 in experiment [1] was 0.862 nM; with pSTAT5/GM-CSF, 1.35 µM; in experiment [2], 0.044 nM. Also, in the experiment with pSTAT5/GM-CSF, the “Selectivity fold (TYK2/JAK2)” value is listed as 1570 fold.
For `CC(=O)Nc1cc(Nc2cccc(S(C)(=O)=O)n2)c(-c2cc(C)n(C)n2)cn1` [Example N1, N-(5-(1,5-dimethyl-1H-pyrazol-3-yl)-4-((6-(methylsulfonyl)pyridin-2-yl)amino)pyridin-2-yl)acetamide], the IC50 in experiment [1] was found to be 0.247 nM; in the experiment on pSTAT5/GM-CSF it was 2.13 µM; in experiment [2], 0.077 nM. Moreover, the “Selectivity fold (TYK2/JAK2)” value in the experiment with pSTAT5/GM-CSF was determined as 8635 fold.
`CC(=O)Nc1cc(Nc2cc(OC(C)C)cc(S(C)(=O)=O)n2)c(-c2ccn(C3CCC3)n2)cn1` [Example A19, N-(5-(1-cyclobutyl-1H-pyrazol-3-yl)-4-((4-isopropoxy-6-(methylsulfonyl)pyridin-2-yl)amino)pyridin-2-yl)acetamide]: the “Selectivity fold (TYK2/JAK2)” value in experiment [1] is more than 6535 fold. Besides, the IC50 in experiment [1] was 1.53 nM; with pSTAT5/GM-CSF, more than 10 µM; in experiment [2] it was 0.034 nM.

For the origin of these results see US20240043435A1, “TYK-2 INHIBITOR” (BEIGENE, LTD., priority 2020, published 2024).
